Laboratory results published in PubChem BioAssay AID1963451 (Molecular Pharmacology Branch, DTP, NCI, 2024).
Where “and” joins values, the source holds several entries; their conditions need not be identical. Equal entries are not always repeated.

Tested on: 521955-158-R6-J3-PDC complex spheroid growth, % test/control
Assay: Anticancer human tumor 521955-158-R6-J3-PDC patient-derived pancreatic carcinoma cell line growth inhibition [Asc]
Settings: for viability, T/C: stronger effect = lower value
Summary of the method: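 Stromal components (HUVEC and hMSC) are co-assembled with the cancer cells into multicellular spheroids. Drugs are then added singly or paired, at concentrations falling by half-log increments from a clinically achievable maximum, capped at 10 microM without known Cmax.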
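Note: spheroids exposed to compounds for 7 days.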
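Throughout, for viability, T/C: 100% = DMSO vehicle control wells.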

Cn1ncnc1[C@H]1c2n[nH]c(=O)c3cc(F)cc(c23)N[C@@H]1c1ccc(F)cc1 + CNC(C)C(=O)NC1CN(S(=O)(=O)c2cccc(S(=O)(=O)N3CCC4CCC(C(=O)NC(c5ccccc5)c5ccccc5)N4C(=O)C(NC(=O)C(C)NC)C3)c2)CCC2CCC(C(=O)NC(c3ccccc3)c3ccccc3)N2C1=O
IC50 (curve of first compound, second compound 0.00316 µM): > 100 nM
IC50 (curve of first compound, second compound 0.01 µM): > 100 nM
IC50 (curve of first compound, second compound 0.0316 µM): > 100 nM
IC50 (curve of first compound, second compound 0.1 µM): > 100 nM
IC50 (curve of first compound, second compound 0.316 µM): > 100 nM
IC50 (curve of first compound, second compound 1 µM): > 100 nM
viability, T/C (second compound 0.00316 µM, first compound 0.000316 µM): 188%
viability, T/C (second compound 0.00316 µM, first compound 0.001 µM): 151%
viability, T/C (second compound 0.00316 µM, first compound 0.00316 µM): 151%
viability, T/C (second compound 0.00316 µM, first compound 0.01 µM): 159%
viability, T/C (second compound 0.00316 µM, first compound 0.0316 µM): 163%
viability, T/C (second compound 0.00316 µM, first compound 0.1 µM): 140%
viability, T/C (second compound 0.01 µM, first compound 0.000316 µM): 154%
viability, T/C (second compound 0.01 µM, first compound 0.001 µM): 171%
viability, T/C (second compound 0.01 µM, first compound 0.00316 µM): 142%
viability, T/C (second compound 0.01 µM, first compound 0.01 µM): 146%
viability, T/C (second compound 0.01 µM, first compound 0.0316 µM): 153%
viability, T/C (second compound 0.01 µM, first compound 0.1 µM): 161%
viability, T/C (second compound 0.0316 µM, first compound 0.000316 µM): 96.4%
viability, T/C (second compound 0.0316 µM, first compound 0.001 µM): 79.9%
viability, T/C (second compound 0.0316 µM, first compound 0.00316 µM): 93.6%
viability, T/C (second compound 0.0316 µM, first compound 0.01 µM): 74.6%
viability, T/C (second compound 0.0316 µM, first compound 0.0316 µM): 76.9%
viability, T/C (second compound 0.0316 µM, first compound 0.1 µM): 92.1%
viability, T/C (second compound 0.1 µM, first compound 0.000316 µM): 93.2%
viability, T/C (second compound 0.1 µM, first compound 0.001 µM): 79.2%
viability, T/C (second compound 0.1 µM, first compound 0.00316 µM): 85.6%
viability, T/C (second compound 0.1 µM, first compound 0.01 µM): 83%
viability, T/C (second compound 0.1 µM, first compound 0.0316 µM): 87.4%
viability, T/C (second compound 0.1 µM, first compound 0.1 µM): 78.2%
viability, T/C (second compound 0.316 µM, first compound 0.000316 µM): 84.8%
viability, T/C (second compound 0.316 µM, first compound 0.001 µM): 72.6%
viability, T/C (second compound 0.316 µM, first compound 0.00316 µM): 83.3%
viability, T/C (second compound 0.316 µM, first compound 0.01 µM): 87.1%
viability, T/C (second compound 0.316 µM, first compound 0.0316 µM): 89.3%
viability, T/C (second compound 0.316 µM, first compound 0.1 µM): 84.1%
viability, T/C (second compound 1 µM, first compound 0.000316 µM): 73.3%
viability, T/C (second compound 1 µM, first compound 0.001 µM): 74.9%
viability, T/C (second compound 1 µM, first compound 0.00316 µM): 83.9%
viability, T/C (second compound 1 µM, first compound 0.01 µM): 74.7%
viability, T/C (second compound 1 µM, first compound 0.0316 µM): 87.8%
viability, T/C (second compound 1 µM, first compound 0.1 µM): 83.2%

O=C(c1ccc(F)c(F)c1Nc1ccc(I)cc1F)N1CC(O)([C@@H]2CCCCN2)C1 + CCN1C(C(=O)NC23CCC(C(=O)O)(CC2)CC3)C(c2cccc(Cl)c2F)C2(C(=O)Nc3cc(Cl)ccc32)C12CCCCC2
IC50 (curve of first compound, second compound 0.00949 µM): 563 nM
IC50 (curve of first compound, second compound 0.03 µM): 587 nM
IC50 (curve of first compound, second compound 0.0949 µM): 389 nM
IC50 (curve of first compound, second compound 0.3 µM): 559 nM
IC50 (curve of first compound, second compound 0.949 µM): 380 nM
IC50 (curve of first compound, second compound 3 µM): 322 nM
viability, T/C (second compound 0.00949 µM, first compound 0.00316 µM): 85.8%
viability, T/C (second compound 0.00949 µM, first compound 0.01 µM): 102%
viability, T/C (second compound 0.00949 µM, first compound 0.0316 µM): 134%
viability, T/C (second compound 0.00949 µM, first compound 0.1 µM): 105%
viability, T/C (second compound 0.00949 µM, first compound 0.316 µM): 65.1%
viability, T/C (second compound 0.00949 µM, first compound 1 µM): 35%
viability, T/C (second compound 0.03 µM, first compound 0.00316 µM): 113%
viability, T/C (second compound 0.03 µM, first compound 0.01 µM): 106%
viability, T/C (second compound 0.03 µM, first compound 0.0316 µM): 104%
viability, T/C (second compound 0.03 µM, first compound 0.1 µM): 104%
viability, T/C (second compound 0.03 µM, first compound 0.316 µM): 68.5%
viability, T/C (second compound 0.03 µM, first compound 1 µM): 34%
viability, T/C (second compound 0.0949 µM, first compound 0.00316 µM): 104%
viability, T/C (second compound 0.0949 µM, first compound 0.01 µM): 111%
viability, T/C (second compound 0.0949 µM, first compound 0.0316 µM): 114%
viability, T/C (second compound 0.0949 µM, first compound 0.1 µM): 90.7%
viability, T/C (second compound 0.0949 µM, first compound 0.316 µM): 53.5%
viability, T/C (second compound 0.0949 µM, first compound 1 µM): 38.3%
viability, T/C (second compound 0.3 µM, first compound 0.00316 µM): 121%
viability, T/C (second compound 0.3 µM, first compound 0.01 µM): 117%
viability, T/C (second compound 0.3 µM, first compound 0.0316 µM): 120%
viability, T/C (second compound 0.3 µM, first compound 0.1 µM): 86.3%
viability, T/C (second compound 0.3 µM, first compound 0.316 µM): 63.2%
viability, T/C (second compound 0.3 µM, first compound 1 µM): 38.7%
viability, T/C (second compound 0.949 µM, first compound 0.00316 µM): 118%
viability, T/C (second compound 0.949 µM, first compound 0.01 µM): 115%
viability, T/C (second compound 0.949 µM, first compound 0.0316 µM): 120%
viability, T/C (second compound 0.949 µM, first compound 0.1 µM): 80%
viability, T/C (second compound 0.949 µM, first compound 0.316 µM): 57.2%
viability, T/C (second compound 0.949 µM, first compound 1 µM): 38.5%
viability, T/C (second compound 3 µM, first compound 0.00316 µM): 103%
viability, T/C (second compound 3 µM, first compound 0.01 µM): 112%
viability, T/C (second compound 3 µM, first compound 0.0316 µM): 104%
viability, T/C (second compound 3 µM, first compound 0.1 µM): 78.5%
viability, T/C (second compound 3 µM, first compound 0.316 µM): 52.5%
viability, T/C (second compound 3 µM, first compound 1 µM): 34.4%

C=C(F)C(=O)N1CCN(c2nc(OCC3CCCN3C)nc3c2CCN(c2cccc4cccc(Cl)c24)C3)CC1CC#N (stereo not drawn)
viability, T/C (compound 0.0316 µM): 102% (2×) and 93.7%
viability, T/C (compound 0.1 µM): 93.2% and 115% and 87.3%
viability, T/C (compound 0.316 µM): 78.6% and 89.8% and 90.9%
viability, T/C (compound 1 µM): 89.2% and 87.9% and 95.7%
viability, T/C (compound 3.16 µM): 83.7% and 86.3% and 93.3%
viability, T/C (compound 10 µM): 0.33% and 0.31% and 0.93%
IC50 (curve of compound): 5040 nM and 4980 nM and 5380 nM

Cc1nc(N2CCC3(CC2)COC(C)C3N)c(CO)nc1Sc1ccnc(N)c1Cl (stereo not drawn)
viability, T/C (compound 0.00949 µM): 89.6% and 113% and 112%
viability, T/C (compound 0.03 µM): 90.4% and 106% and 101%
viability, T/C (compound 0.0949 µM): 83.9% and 93.1% and 97%
viability, T/C (compound 0.3 µM): 84.7% and 97.1% and 94.5%
viability, T/C (compound 0.949 µM): 72.8% and 94.4% and 71.6%
viability, T/C (compound 3 µM): 57.9% and 89.5% and 90.1%
IC50 (curve of compound): > 3000 nM
